In patent publication US10533012B2, “(R)-pirlindole and its pharmaceutically acceptable salts for use in medicine” (TECNIMEDE SOCIEDADE TECNICO-MEDICINAL S.A., priority 2014, dated 2020):

Target: T1, human α2A adrenergic receptor (Homo sapiens, UniProt P08913)
T1 construct: expressed in transfected cells; host or cells: CHO (Chinese hamster ovary) cells
T1 sequence (P08913 1-465): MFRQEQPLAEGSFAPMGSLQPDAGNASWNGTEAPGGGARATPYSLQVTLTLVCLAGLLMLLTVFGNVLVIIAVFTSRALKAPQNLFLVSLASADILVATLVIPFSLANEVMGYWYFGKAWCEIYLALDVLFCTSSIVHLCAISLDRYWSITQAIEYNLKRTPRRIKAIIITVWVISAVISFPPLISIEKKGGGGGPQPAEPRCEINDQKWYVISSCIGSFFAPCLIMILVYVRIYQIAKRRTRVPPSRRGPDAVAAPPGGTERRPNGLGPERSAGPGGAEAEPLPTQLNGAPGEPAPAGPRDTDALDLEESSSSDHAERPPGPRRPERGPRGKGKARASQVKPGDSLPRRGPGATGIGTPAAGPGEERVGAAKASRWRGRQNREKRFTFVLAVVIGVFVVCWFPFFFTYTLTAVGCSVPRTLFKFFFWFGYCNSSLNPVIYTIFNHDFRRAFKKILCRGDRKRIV
Assay: functional α2A adrenergic receptor antagonism assay in CHO cells (morphological response, versus agonist UK-14304)
Assay type: cell-based
Conditions: for inhibition at 10 µM: CHO, 100 minus % maximum agonist activity; for % Maximum Agonist Activity (percentage of maximum agonist activity induced by UK-14304): CHO cells expressing human α2A receptor, reading 6 minutes after addition
Protocol: The functional α2A adrenergic receptor antagonism assay was carried out in a platform in which the morphological response of CHO (Chinese hamster ovary) cells expressing α2A receptors was assessed. The functional assay was performed using as test items the (R)-pirlindole and the (rac)-pirlindole.
The CHO cells, expressing the human α2A adrenergic receptor were plated the day before the experiment in an adequate culture medium. The compounds were added to the wells and readings were taken 6 minutes later. Responses from the samples were compared to control responses to assess agonist or antagonist activity. The percentage of maximal activity (% Maximum Activity) translates the percentage of agonist activity induced by the α2A agonist, UK-14304 (5-Bromo-N-(2-imidazolin-2-yl)-6-quinoxalinamine, 5-Bromo-N-(4,5-dihydro-1H-imidazol-2-yl)-6-quinoxalinamine, brimonidine) commercialized by the company Sigma-Aldrich.

SMILES | antagonist activity on α2A adrenergic receptors, times less than (R)-pirlindole (10 μM, ratio of inhibition versus (R)-pirlindole) [times] | inhibition at 10 µM (test compound 10 μM) [%] | % Maximum Agonist Activity (percentage of maximum agonist activity induced by UK-14304) (test compound 1 μM) [%] | % Maximum Agonist Activity (percentage of maximum agonist activity induced by UK-14304) (test compound 5 μM) [%] | % Maximum Agonist Activity (percentage of maximum agonist activity induced by UK-14304) (test compound 10 μM) [%]
Cc1ccc2c(c1)c1c3n2CCNC3CCC1 (racemic) [(rac)-pirlindole, 2,3,3a,4,5,6-hexahydro-8 methyl-1H-pyrazino [3,2,1-j, k] carbazole] | ~4 | 11 | 98.47 | 96.50 | 89.02
Cc1ccc2c(c1)c1c3n2CCN[C@@H]3CCC1 [(R)-pirlindole] |  | 40.3 | 107.76 | 87.37 | 59.72
